# According to patent US10640506B2, “Cyclobutyl substituted pyrrolopyridine and pyrrolopyrimidines derivatives as JAK inhibitors” (Incyte Corporation, priority 2010, dated 2020):
# Structures can show the parent of a compound that is named as a salt. Where two headings read alike, the source gives them in different places.
# Assays:
# [1] = target: human JAK1 (a.a. 837-1142) (Homo sapiens, UniProt P23458); assay: In vitro JAK kinase assay (HTRF, phosphorylation of biotinylated peptide), JAK1; assay type: biochemical; conditions: 1 mM ATP
# Sequence of human JAK1 (a.a. 837-1142) (P23458 849-1154): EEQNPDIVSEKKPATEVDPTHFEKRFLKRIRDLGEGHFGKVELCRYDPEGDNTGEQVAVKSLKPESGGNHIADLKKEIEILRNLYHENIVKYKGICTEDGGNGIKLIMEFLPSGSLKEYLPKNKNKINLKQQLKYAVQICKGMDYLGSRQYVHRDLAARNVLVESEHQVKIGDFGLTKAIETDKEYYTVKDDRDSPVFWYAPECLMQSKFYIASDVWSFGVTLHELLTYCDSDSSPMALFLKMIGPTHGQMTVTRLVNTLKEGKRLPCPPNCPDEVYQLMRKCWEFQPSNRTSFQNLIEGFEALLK
# How it was run: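 His-tagged human JAK1 catalytic domain (a.a. 837-1142), baculovirus/insect-cell expressed, phosphorylates a biotinylated peptide for 1 h at room temperature. Reaction stopped with EDTA; product detected by HTRF (SA-APC, Eu-Py20, 40 min binding). IC50 reported as ranges.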
# JAK2 (a.a. 828-1132) = target: T1, JAK2 (a.a. 828-1132) (Homo sapiens, UniProt O60674); assay: In vitro JAK kinase assay (HTRF, phosphorylation of biotinylated peptide), JAK2; assay type: biochemical; conditions: 1 mM ATP
# T1 construct: JAK2 (a.a. 828-1132); His tag (N)
# T1 sequence (O60674 828-1132): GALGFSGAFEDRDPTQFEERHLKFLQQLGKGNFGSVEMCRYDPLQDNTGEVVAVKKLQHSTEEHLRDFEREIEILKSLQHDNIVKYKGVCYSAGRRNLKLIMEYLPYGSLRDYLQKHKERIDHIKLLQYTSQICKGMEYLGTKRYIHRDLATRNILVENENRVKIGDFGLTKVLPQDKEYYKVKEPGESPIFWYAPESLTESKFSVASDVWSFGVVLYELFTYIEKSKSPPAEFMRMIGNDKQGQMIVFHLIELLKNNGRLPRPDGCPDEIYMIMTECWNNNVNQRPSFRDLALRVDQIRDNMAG
# How it was run: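 His-tagged catalytic domains of human JAK1 (a.a. 837-1142) and JAK2 (a.a. 828-1132), baculovirus-expressed, phosphorylate a biotinylated peptide for 1 hour at room temperature. Stopped with EDTA; detected by HTRF using SA-APC and Eu-Py20 antibody after 40 min binding; values binned as ranges.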
Compound,IC50 ([1]; Table F) [nM],IC50 (JAK2 (a.a. 828-1132); Table F) [nM],also measured
"CCN(C)C(=O)N1CCN([C@H]2C[C@](CC#N)(n3cc(-c4ncnc5[nH]ccc45)cn3)C2)CC1 [Example 38, 4-{trans-3-(cyanomethyl)-3-[4-(7H-pyrrolo[2,3-d]pyrimidin-4-yl)-1H-pyrazol-1-yl]cyclobutyl}-N-ethyl-N-methylpiperazine-1-carboxamide]",–,–,"IC50 ([1]; Table B, read-out: JAK1 IC50): < 10 nM; IC50 (JAK2 (a.a. 828-1132); Table B, read-out: JAK2 IC50): 25 to 100 nM"
"CN(C)C1(c2cc(C(=O)N3CCN([C@H]4C[C@@](CC#N)(n5cc(-c6ncnc7[nH]ccc67)cn5)C4)CC3)nc(C(F)(F)F)n2)CCC1 [Example 64, {cis-3-(4-{[6-[1-(dimethylamino)cyclobutyl]-2-(trifluoromethyl)pyrimidin-4-yl]carbonyl}piperazin-1-yl)-1-[4-(7H-pyrrolo[2,3-d]pyrimidin-4-yl)-1H-pyrazol-1-yl]cyclobutyl}acetonitrile]",< 10,25 to 100,–
"CN(C)c1ccc(CN2CCN([C@H]3C[C@](CC#N)(n4cc(-c5ncnc6[nH]ccc56)cn4)C3)CC2)c(F)c1C#N [Example 2b, 3-[(4-{trans-3-(cyanomethyl)-3-[4-(7H-pyrrolo[2,3-d]pyrimidin-4-yl)-1H-pyrazol-1-yl]cyclobutyl}piperazin-1-yl)methyl]-6-(dimethylamino)-2-fluorobenzonitrile]",–,–,"IC50 ([1]; Table B, read-out: JAK1 IC50): < 10 nM; IC50 (JAK2 (a.a. 828-1132); Table B, read-out: JAK2 IC50): 25 to 100 nM"
"CN(C(=O)N1CCN([C@H]2C[C@](CC#N)(n3cc(-c4ncnc5[nH]ccc45)cn3)C2)CC1)C1CC1 [Example 83, 4-{trans-3-(cyanomethyl)-3-[4-(7H-pyrrolo[2,3-d]pyrimidin-4-yl)-1H-pyrazol-1-yl]cyclobutyl}-N-cyclopropyl-N-methylpiperazine-1-carboxamide]",< 10,25 to 100,–
"CN(C)Cc1cc(F)cc(C(=O)N2CCN([C@H]3C[C@](CC#N)(n4cc(-c5ncnc6[nH]ccc56)cn4)C3)CC2)c1 [Example 33, {trans-3-(4-{3-[(dimethylamino)methyl]-5-fluorobenzoyl}piperazin-1-yl)-1-[4-(7H-pyrrolo[2,3-d]pyrimidin-4-yl)-1H-pyrazol-1-yl]cyclobutyl}acetonitrile]",–,–,"IC50 ([1]; Table B, read-out: JAK1 IC50): < 10 nM; IC50 (JAK2 (a.a. 828-1132); Table B, read-out: JAK2 IC50): < 10 nM"
"CC(C)NCc1cc(C(=O)N2CCN([C@H]3C[C@](CC#N)(n4cc(-c5ncnc6[nH]ccc56)cn4)C3)CC2)nc(C(F)(F)F)n1 [Example 55, {trans-3-(4-{[6-[(isopropylamino)methyl]-2-(trifluoromethyl)pyrimidin-4-yl]carbonyl}piperazin-1-yl)-1-[4-(7H-pyrrolo[2,3-d]pyrimidin-4-yl)-1H-pyrazol-1-yl]cyclobutyl}acetonitrile]",< 10,25 to 100,–
"N#CC[C@]1(n2cc(-c3ncnc4[nH]ccc34)cn2)C[C@H](N2CCN(S(=O)(=O)C3CC3)CC2)C1 [Example 36, {trans-3-[4-(cyclopropylsulfonyl)piperazin-1-yl]-1-[4-(7H-pyrrolo[2,3-d]pyrimidin-4-yl)-1H-pyrazol-1-yl]cyclobutyl}acetonitrile]",–,–,"IC50 ([1]; Table B, read-out: JAK1 IC50): < 10 nM; IC50 (JAK2 (a.a. 828-1132); Table B, read-out: JAK2 IC50): < 10 nM"
"CN(C)Cc1cc(F)cc(OC2CCN(C3CC(CC#N)(n4cc(-c5ncnc6[nH]ccc56)cn4)C3)CC2)c1 (single isomer, unassigned; isomer 2) [Example 40, isomer 2, {trans-3-(4-{3-[(dimethylamino)methyl]-5-fluorophenoxy}piperidin-1-yl)-1-[4-(7H-pyrrolo[2,3-d]pyrimidin-4-yl)-1H-pyrazol-1-yl]cyclobutyl}acetonitrile]",–,–,"IC50 ([1]; read-out: JAK1 IC50 (nM) at 1 mM, Table E): < 10 nM; IC50 (JAK2 (a.a. 828-1132); Table E, listed as 40, isomer 2, read-out: JAK2 IC50 (nM) +): < 10 nM"
"CN(C)/C(=N\C#N)N1CCN([C@H]2C[C@](CC#N)(n3cc(-c4ncnc5[nH]ccc45)cn3)C2)CC1 [Example 118, N′-cyano-4-{trans-3-(cyanomethyl)-3-[4-(7H-pyrrolo[2,3-d]pyrimidin-4-yl)-1H-pyrazol-1-yl]cyclobutyl}-N,N-dimethylpiperazine-1-carboximidamide]",10 to 25,25 to 100,–
"CN(C)Cc1cc(C(=O)N2CCN([C@H]3C[C@@](CC#N)(n4cc(-c5ncnc6[nH]ccc56)cn4)C3)CC2)cc(C(F)(F)F)c1 [Example 135, {cis-3-{4-[3-[(dimethylamino)methyl]-5-(trifluoromethyl)benzoyl]piperazin-1-yl}-1-[4-(7H-pyrrolo[2,3-d]pyrimidin-4-yl)-1H-pyrazol-1-yl]cyclobutyl}acetonitrile]",10 to 25,> 100,–
"N#CC[C@]1(n2cc(-c3ncnc4[nH]ccc34)cn2)C[C@H](N2CCN(C(=O)c3ccc(C(F)(F)F)cc3F)CC2)C1 [Example 18, {trans-3-{4-[2-fluoro-4-(trifluoromethyl)benzoyl]piperazin-1-yl}-1-[4-(7H-pyrrolo[2,3-d]pyrimidin-4-yl)-1H-pyrazol-1-yl]cyclobutyl}acetonitrile 2.3×(trifluoroacetate) Salt]",–,–,"IC50 ([1]; Table B, read-out: JAK1 IC50): < 10 nM; IC50 (JAK2 (a.a. 828-1132); Table B, read-out: JAK2 IC50): 10 to 25 nM"
"N#CC[C@]1(n2cc(-c3ncnc4[nH]ccc34)cn2)C[C@H](N2CCN(C(=O)c3cc(C4(O)CCC4)nc(C(F)(F)F)n3)CC2)C1 [Example 72, {trans-3-(4-{[6-(1-hydroxycyclobutyl)-2-(trifluoromethyl)pyrimidin-4-yl]carbonyl}piperazin-1-yl)-1-[4-(7H-pyrrolo[2,3-d]pyrimidin-4-yl)-1H-pyrazol-1-yl]cyclobutyl}acetonitrile]",< 10,10 to 25,–
"N#CC[C@]1(n2cc(-c3ncnc4[nH]ccc34)cn2)C[C@H](N2CCN(C(N)=O)CC2)C1 [Example 95, 4-{trans-3-(cyanomethyl)-3-[4-(7H-pyrrolo[2,3-d]pyrimidin-4-yl)-1H-pyrazol-1-yl]cyclobutyl}piperazine-1-carboxamide]",< 10,25 to 100,–
"CC(C)[C@@H](C)NC(=O)N1CCN([C@H]2C[C@@](CC#N)(n3cc(-c4ncnc5[nH]ccc45)cn3)C2)CC1 [Example 110, 4-{cis-3-(cyanomethyl)-3-[4-(7H-pyrrolo[2,3-d]pyrimidin-4-yl)-1H-pyrazol-1-yl]cyclobutyl}-N-[(1R)-1,2-dimethylpropyl]piperazine-1-carboxamide]",< 10,> 100,–
"N#CC[C@]1(n2cc(-c3ncnc4[nH]ccc34)cn2)C[C@H](N2CCC(Oc3cc(CN4CCCC4)nc(C(F)(F)F)n3)CC2)C1 [Example 148, {trans-3-(4-{[6-(pyrrolidin-1-ylmethyl)-2-(trifluoromethyl)pyrimidin-4-yl]oxy}piperidin-1-yl)-1-[4-(7H-pyrrolo[2,3-d]pyrimidin-4-yl)-1H-pyrazol-1-yl]cyclobutyl}acetonitrile]",10 to 25,> 100,–
"N#CC[C@]1(n2cc(-c3ncnc4[nH]ccc34)cn2)C[C@@H](N2CCN(C(=O)c3ccc(C(F)(F)F)cc3F)CC2)C1 [Example 29, {cis-3-{4-[2-fluoro-4-(trifluoromethyl)benzoyl]piperazin-1-yl}-1-[4-(7H-pyrrolo[2,3-d]pyrimidin-4-yl)-1H-pyrazol-1-yl]cyclobutyl}acetonitrile 2.3×(trifluoroacetate) Salt]",–,–,"IC50 ([1]; Table A, read-out: JAK1 IC50): 10 to 25 nM; IC50 (JAK2 (a.a. 828-1132); Table A, read-out: JAK2 IC50): 25 to 100 nM"
"CC[C@H](NC(=O)N1CCN([C@H]2C[C@](CC#N)(n3cc(-c4ncnc5[nH]ccc45)cn3)C2)CC1)C(F)(F)F [Example 115, 4-{trans-3-(cyanomethyl)-3-[4-(7H-pyrrolo[2,3-d]pyrimidin-4-yl)-1H-pyrazol-1-yl]cyclobutyl}-N-[(1S)-1-(trifluoromethyl)propyl]piperazine-1-carboxamide]",< 10,> 100,–
"CN(C)Cc1cc(CN2CCN([C@H]3C[C@@](CC#N)(n4cc(-c5ncnc6[nH]ccc56)cn4)C3)CC2)cc(C(F)(F)F)c1 [Example 46, {cis-3-{4-[3-[(dimethylamino)methyl]-5-(trifluoromethyl)benzyl]piperazin-1-yl}-1-[4-(7H-pyrrolo[2,3-d]pyrimidin-4-yl)-1H-pyrazol-1-yl]cyclobutyl}acetonitrile]",25 to 100,> 100,–
"N#CC[C@]1(n2cc(-c3ncnc4[nH]ccc34)cn2)C[C@H](N2CCN(C(=O)N3CCC[C@@H]3C(F)(F)F)CC2)C1 [Example 116, [trans-1-[4-(7H-pyrrolo[2,3-d]pyrimidin-4-yl)-1H-pyrazol-1-yl]-3-(4-{[(2R)-2-(trifluoromethyl)pyrrolidin-1-yl]carbonyl}piperazin-1-yl)cyclobutyl]acetonitrile]",25 to 100,> 100,–
"N#CC[C@]1(n2cc(-c3ncnc4[nH]ccc34)cn2)C[C@H](N2CCN(C(=O)N[C@H]3CCC[C@H]3O)CC2)C1 (single isomer, unassigned) [Example 89]",< 10,25 to 100,–
"N#CC[C@]1(n2cc(-c3ncnc4[nH]ccc34)cn2)C[C@@H](N2CCN(C(=O)c3cc(F)cc(C(F)(F)F)c3)CC2)C1 [Example 17, {cis-3-{4-[3-fluoro-5-(trifluoromethyl)benzoyl]piperazin-1-yl}-1-[4-(7H-pyrrolo[2,3-d]pyrimidin-4-yl)-1H-pyrazol-1-yl]cyclobutyl}acetonitrile]",–,–,"IC50 ([1]; Table A, read-out: JAK1 IC50): < 10 nM; IC50 (JAK2 (a.a. 828-1132); Table A, read-out: JAK2 IC50): 25 to 100 nM"
"C[C@H]1CCCN1C(=O)N1CCN([C@H]2C[C@@](CC#N)(n3cc(-c4ncnc5[nH]ccc45)cn3)C2)CC1 [Example 4a, {cis-3-(4-{[(2S)-2-methylpyrrolidin-1-yl]carbonyl}piperazin-1-yl)-1-[4-(7H-pyrrolo[2,3-d]pyrimidin-4-yl)-1H-pyrazol-1-yl]cyclobutyl}acetonitrile]",–,–,"IC50 ([1]; Table A, read-out: JAK1 IC50): 25 to 100 nM; IC50 (JAK2 (a.a. 828-1132); Table A, read-out: JAK2 IC50): > 100 nM"
